{"source": "paper PMC9518246", "about": "“Design and synthesis of new indole drug candidates to treat Alzheimer’s disease and targeting neuro-inflammation using a multi-target-directed ligand (MTDL) strategy” (Journal of Enzyme Inhibition and Medicinal Chemistry, 2022)", "key": {"BuChE": {"target": "BuChE (Homo sapiens, UniProt P06276)", "sequence (P06276 29-602)": "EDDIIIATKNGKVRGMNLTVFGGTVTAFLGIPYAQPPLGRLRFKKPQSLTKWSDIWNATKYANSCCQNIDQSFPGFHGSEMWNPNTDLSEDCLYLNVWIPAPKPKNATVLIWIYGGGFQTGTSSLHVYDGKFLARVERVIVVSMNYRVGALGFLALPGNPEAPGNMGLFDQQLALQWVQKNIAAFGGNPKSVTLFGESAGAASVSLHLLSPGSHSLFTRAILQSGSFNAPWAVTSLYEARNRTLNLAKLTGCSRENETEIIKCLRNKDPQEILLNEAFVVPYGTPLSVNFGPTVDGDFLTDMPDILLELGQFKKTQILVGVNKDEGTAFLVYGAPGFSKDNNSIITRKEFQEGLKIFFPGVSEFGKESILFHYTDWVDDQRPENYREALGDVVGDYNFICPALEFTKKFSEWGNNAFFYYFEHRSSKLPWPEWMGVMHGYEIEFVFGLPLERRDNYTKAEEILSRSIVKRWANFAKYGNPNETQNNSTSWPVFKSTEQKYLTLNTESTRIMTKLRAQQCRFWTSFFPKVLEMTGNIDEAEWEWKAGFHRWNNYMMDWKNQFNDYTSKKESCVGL", "assay": "biochemical", "settings": "modified Ellman; read-out: BuChE inhibitory activity IC50", "procedure": "(§1) The effects of twenty synthetic compounds were evaluated for AChE and BuChE inhibition using the modified method of Ellman et al.[33] […] AChE and BuChE are found in the brains of mammals. Genetically, structurally, and kinetically, the two kinds vary. In the human brain, BuChE is found in glial cells and neurons as well as in plaques and tangles in AD patients. […] BuChE may replace AChE by hydrolysing brain acetylcholine in some conditions, such as in mice nullizygote for AChE or in AD patients in advanced stages of the disease[34]^,[35]."}, "AChE": {"target": "AChE (Homo sapiens, UniProt P22303)", "sequence (P22303 32-614)": "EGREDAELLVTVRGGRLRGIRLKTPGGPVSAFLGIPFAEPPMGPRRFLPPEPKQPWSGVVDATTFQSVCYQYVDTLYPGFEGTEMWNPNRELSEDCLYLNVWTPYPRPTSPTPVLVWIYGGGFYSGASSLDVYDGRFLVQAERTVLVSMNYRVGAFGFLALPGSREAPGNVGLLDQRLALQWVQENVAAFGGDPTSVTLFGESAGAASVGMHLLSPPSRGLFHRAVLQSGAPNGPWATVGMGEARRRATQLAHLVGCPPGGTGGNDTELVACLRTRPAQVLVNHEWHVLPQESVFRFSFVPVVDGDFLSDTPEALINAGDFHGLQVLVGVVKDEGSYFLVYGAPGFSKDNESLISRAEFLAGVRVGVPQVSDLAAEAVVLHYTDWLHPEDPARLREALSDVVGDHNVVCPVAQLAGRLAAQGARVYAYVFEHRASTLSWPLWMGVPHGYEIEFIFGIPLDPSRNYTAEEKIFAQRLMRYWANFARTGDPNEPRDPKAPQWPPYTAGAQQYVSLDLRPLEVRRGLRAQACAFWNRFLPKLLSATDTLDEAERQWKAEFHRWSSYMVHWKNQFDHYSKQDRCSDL", "assay": "biochemical", "settings": "for IC50: modified Ellman, read-out: AChE inhibitory activity IC50", "procedure": "as §1"}, "Aβ1–42": {"target": "T1, Aβ1–42 (Homo sapiens, UniProt P05067)", "T1 construct": "purchased BioVision K570-100", "T1 sequence (P05067 672-713 limits assumed)": "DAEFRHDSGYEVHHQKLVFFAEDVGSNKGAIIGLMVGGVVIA", "assay": "Inhibition of Aβ1-42 self-induced aggregation (BioVision ligand screening kit)", "format": "biochemical", "settings": "µM", "source_text": "Screening Aβ42 ligands that could prevent aggregation is critical for developing potential therapeutic treatments. In BioVision’s Beta-Amyloid 1–42 (Aβ42) Ligand Screening kit, a dye binds to the beta-sheets of an aggregated amyloid peptide resulting in an intense fluorescent product at wave length 450 nm using a BIOLINE ELISA reader. In the presence of an Aβ42 ligand, this reaction is impeded/abolished resulting in a decrease or total loss of fluorescence. This assay is useful in screening Aβ42 ligands for developing potential therapeutic agents against AD[42]. The assessment was performed according to BioVision’s Beta-Amyloid 1–42 (Aβ42) Ligand Screening Kit Catalog No. K570-100."}}, "note": "Several values for one entry are separate records, joined by “and”; a condition that tells them apart may be missing. Equal values may be shown once."}
{"smiles": "CS(=O)(=O)n1cc(/C=C(\\C(=O)N2CCCCC2)c2ccc(Cl)cc2)c2ccccc21", "note": "[Compound 4a, (E)-2–(4-Chlorophenyl)-3-[1-(methylsulfonyl)-1H-indol-3-yl]-1-(pipridin-1-yl)prop-2-en-1-one]", "values": [{"measurement": "IC50", "setting": "BuChE", "value": "41.7 to 74.1 nM and 36.9 to 80.4 nM"}, {"measurement": "IC50", "setting": "AChE", "value": "132 to 164", "unit": "nM"}, {"measurement": "IC50", "setting": "Aβ1–42", "value": 22.4, "unit": "µM"}]}
{"smiles": "COc1cc(/C(=C\\c2cn(S(C)(=O)=O)c3ccccc23)C(=O)O)cc(OC)c1OC", "note": "[Compound 3c, (E)-3-[1-(Methylsulfonyl)-1H-indol-3-yl]-2–(3,4,5-trimethoxyphenyl)acrylic acid]", "values": [{"measurement": "IC50", "setting": "BuChE", "value": 117, "unit": "nM"}, {"measurement": "IC50", "setting": "AChE", "value": 41.1, "unit": "nM"}, {"measurement": "IC50", "setting": "Aβ1–42", "value": 6.91, "unit": "µM"}]}
{"smiles": "CS(=O)(=O)n1cc(/C=N/NC(=O)Cc2ccc(Cl)cc2)c2ccccc21", "note": "[Compound 7c, (E)-2–(4-Chlorophenyl)-N'-{[1-(methylsulfonyl)-1H-indol-3-yl]methylene}acetohydrazide]", "values": [{"measurement": "IC50", "setting": "BuChE", "value": 76, "unit": "nM"}, {"measurement": "IC50", "setting": "AChE", "value": 89.1, "unit": "nM"}, {"measurement": "IC50", "setting": "Aβ1–42", "value": 14.9, "unit": "µM"}]}
{"smiles": "CS(=O)(=O)n1cc(C=C(C(=O)N2CCC(Cc3ccccc3)CC2)c2ccc(Cl)cc2)c2ccccc21", "note": "[Compound 4d, (E)-1–(4-Benzylpipridin-1-yl)-2–(4-chlorophenyl)-3-[1-(methylsulfonyl)-1H-indol-3-yl]prop-2-en-1-one]", "values": [{"measurement": "IC50", "setting": "BuChE", "value": "41.7 to 74.1 nM and 36.9 to 80.4 nM"}, {"measurement": "IC50", "setting": "AChE", "value": "132 to 164", "unit": "nM"}, {"measurement": "IC50", "setting": "Aβ1–42", "value": 8.76, "unit": "µM"}]}
{"smiles": "CS(=O)(=O)n1cc(/C=C(/C(=O)O)c2ccc(Cl)cc2)c2ccccc21", "note": "[Compound 3b, (E)-2–(4-Chlorophenyl)-3-[1-(methylsulfonyl)-1H-indol-3-yl]acrylic acid]", "values": [{"measurement": "AChE inhibition in words, compared to reference drugs (tacrine and donepezil)", "setting": "AChE", "value": "less activity"}]}
{"smiles": "COc1ccc(-c2c(C#N)c(N)n(/N=C/c3cn(S(C)(=O)=O)c4ccccc34)c(=O)c2C#N)cc1", "note": "[Compound 9a, (E)-6-Amino-4-(4-methoxyphenyl)-1-{[(1-(methylsulfonyl)-1H-indol-3-yl)methylene]amino}-2-oxo-1,2-dihydropyridine-3,5-dicarbonitrile]", "values": [{"measurement": "AChE inhibition in words, compared to reference drugs (tacrine and donepezil)", "setting": "AChE", "value": "less activity"}]}
{"smiles": "COc1cc(CC(=O)Nc2ccc(C(=O)/C=C/c3cn(S(C)(=O)=O)c4ccccc34)cc2)cc(OC)c1OC", "values": [{"measurement": "melting point", "value": "176 to 178", "unit": "°C"}]}
{"smiles": "CS(=O)(=O)n1cc(/C=N/NC(=O)Cc2ccccc2)c2ccccc21", "note": "[Compound 7b, (E)-N'-{[1-(Methylsulfonyl)-1H-indol-3-yl]methylene}-2-phenylacetohydrazide]", "values": [{"measurement": "AChE inhibition in words, compared to reference drugs (tacrine and donepezil)", "setting": "AChE", "value": "less activity"}]}
{"smiles": "CS(=O)(=O)n1cc(/C=C(\\C(=O)N2CCN(c3ncccn3)CC2)c2ccc(Cl)cc2)c2ccccc21", "note": "[Compound 4c, (E)-2–(4-Chlorophenyl)-3-[1-(methylsulfonyl)-1H-indol-3-yl]-1-[4-(pyrimidin-2-yl)piprazin-1-yl]prop-2-en-1-one]", "values": [{"measurement": "AChE inhibition in words, compared to reference drugs (tacrine and donepezil)", "setting": "AChE", "value": "less activity"}]}
{"smiles": "CCn1c(N)c(C(=O)N/N=C/c2cn(S(C)(=O)=O)c3ccccc23)sc1=S", "note": "[Compound 10a, (E)-4-Amino-3-ethyl-N'-{[1-(methylsulfonyl)-1H-indol-3-yl]methylene}-2-thioxo-2,3-dihydrothiazole-5-carbohydrazide]", "values": [{"measurement": "AChE inhibition in words, compared to reference drugs (tacrine and donepezil)", "setting": "AChE", "value": "less activity"}]}
{"smiles": "CS(=O)(=O)n1cc(/C=N/NC(=O)c2sc(=S)n(-c3ccccc3)c2N)c2ccccc21", "note": "[Compound 10b, (E)-4-Amino-N'-{[1-(methylsulfonyl)-1H-indol-3-yl]methylene}-3-phenyl-2-thioxo-2,3-dihydrothiazole-5-carbohydrazide]", "values": [{"measurement": "IC50", "setting": "BuChE", "value": 47.4, "unit": "nM"}, {"measurement": "IC50", "setting": "AChE", "value": 64.5, "unit": "nM"}, {"measurement": "IC50", "setting": "Aβ1–42", "value": 5.16, "unit": "µM"}]}
{"smiles": "COc1ccc(-c2c(C#N)c(N)n(/N=C/c3cn(S(C)(=O)=O)c4ccccc34)c(=O)c2C#N)cc1OC", "note": "[Compound 9b, (E)-6-Amino-4–(3,4-dimethoxyphenyl)-1-{[(1-(methylsulfonyl)-1H-indol-3-yl)methylene]amino}-2-oxo-1,2-dihydropyridine-3,5-dicarbonitrile]", "values": [{"measurement": "AChE inhibition in words, compared to reference drugs (tacrine and donepezil)", "setting": "AChE", "value": "less activity"}]}
{"smiles": "CS(=O)(=O)n1cc(/C=N/NC(=O)c2ccccc2)c2ccccc21", "values": [{"measurement": "melting point", "value": "114 to 116", "unit": "°C"}]}
{"smiles": "CS(=O)(=O)n1cc(/C=C(/C(=O)Nc2cccnc2)c2ccc(Cl)cc2)c2ccccc21", "note": "[Compound 4b, (E)-2–(4-Chlorophenyl)-3-[1-(methylsulfonyl)-1H-indol-3-yl]-N-(pyridin-3-yl)acrylamide]", "values": [{"measurement": "IC50", "setting": "BuChE", "value": "41.7 to 74.1 nM and 36.9 to 80.4 nM"}, {"measurement": "IC50", "setting": "AChE", "value": "132 to 164", "unit": "nM"}, {"measurement": "IC50", "setting": "Aβ1–42", "value": 13.8, "unit": "µM"}]}
{"smiles": "CS(=O)(=O)n1cc(/C=C(/C(=O)O)c2ccccc2)c2ccccc21", "values": [{"measurement": "melting point", "value": "181 to 183", "unit": "°C"}]}
{"smiles": "COc1cc(-c2c(C#N)c(N)n(/N=C/c3cn(S(C)(=O)=O)c4ccccc34)c(=O)c2C#N)cc(OC)c1OC", "values": [{"measurement": "melting point", "value": "210 to 212", "unit": "°C"}]}
{"smiles": "CS(=O)(=O)n1cc(/C=C/C(=O)c2ccc(NC(=O)Cc3ccccc3)cc2)c2ccccc21", "note": "[Compound 5a, (E)-N-{4-[3–(1-(methylsulfonyl)-1H-indol-3-yl)acryloyl]phenyl}-2-phenylacetamide]", "values": [{"measurement": "AChE inhibition in words, compared to reference drugs (tacrine and donepezil)", "setting": "AChE", "value": "less activity"}]}
{"smiles": "CS(=O)(=O)n1cc(/C=C/C(=O)c2cccc(NC(=O)CN3CCC(Cc4ccccc4)CC3)c2)c2ccccc21", "note": "[Compound 6a, (E)-2–(4-Benzylpiperidin-1-yl)-N-{3-[3–(1-(methylsulfonyl)-1H-indol-3-yl)acryloyl]phenyl}acetamide]", "values": [{"measurement": "AChE inhibition in words, compared to reference drugs (tacrine and donepezil)", "setting": "AChE", "value": "less activity"}]}
